Assay results taken from paper PMC6920980, “Encapsulation in Polymeric Nanoparticles Enhances the Enzymatic Stability and the Permeability of the GLP-1 Analog, Liraglutide, Across a Culture Model of Intestinal Permeability” (Pharmaceutics, 2019).
Each block holds one molecule with its values, some of them ahead of it.

How the values were obtained:
[1] = system: Caco-2 intestinal epithelial cells; test: Cell viability measurement by impedance; type: cell-based, human; conditions: PN159 3 µM; for cell index values measured by impedance (cell viability): Caco-2, liraglutide 100 µM, Triton X-100 1 mg/mL, in culture medium, kinetics for 24 h and 1-h time point, 10 kHz, n = 6–12; for cell impedance kinetics: Caco-2, 24-h long treatment, liraglutide 100 µM
Method: (§1) The Caco-2 intestinal epithelial cell line was purchased from ATCC (cat.no. HTB-37) at passage 60. The cells were grown, as previously reported, in Dulbecco’s modified Eagle’s medium (Gibco, Life Technologies, Carlsbad, CA, USA) supplemented with 10% fetal bovine serum (Pan-Biotech GmbH, Aidenbach, Germany) and 50 μg/mL gentamycin in a humidified incubator with 5% CO2 at 37 °C. All plastic surfaces were coated with 0.05% rat tail collagen in sterile distilled water before cell seeding in culture dishes and the medium was changed every 2 days.
(§2) The concentration of stock solutions for cell culture experiments were 1 mM for both the therapeutic peptide liraglutide and the PN159 peptide, which was used as a reference absorption enhancer. The working solutions were diluted in cell culture medium or Ringer-buffer depending on the experiments. The final concentration of liraglutide encapsulated in the PLGA NPs was 100 µM and was diluted directly before using. Liraglutide was examined at 100 µM, while PN159 was examined at 3 µM concentration both for cell viability and permeability.
Impedance was measured at 10 kHz by an RTCA SP instrument (RTCA-SP instrument, ACEA Biosciences, San Diego, CA, USA). We have successfully tested the cellular effects of peptides and pharmaceutical excipients by impedance kinetics. For background measurements, 50 μL cell culture medium was added to the wells. This was followed by seeding the cells at a density of 6 × 10^3 cells/well to 96-well plate with gold electrodes (E-plate 96, ACEA Biosciences) coated with collagen. Cells were cultured for 5 days in a CO2 incubator at 37 °C and monitored every 10 min until the end of experiments. Cells were treated at the beginning of the plateau phase of growth. Lira, Lira-loaded PLGA NPs, blank PLGA NPs (without cargo), Lira and PN159 solution, and PN159 peptide were diluted in cell culture medium and the effects were followed for 24 h. Triton X-100 detergent (1 mg/mL) was used as a reference compound to obtain total cell toxicity. Cell index was defined as Rn-Rb at each time point of measurement, where Rn is the cell–electrode impedance of the well when it contains cells and Rb is the background impedance of the well with the medium alone.

[2] = Permeability study on the Caco-2 model; type: in vitro ADME, human; conditions: human; Caco-2 on Transwell (polycarbonate, 3 µm pore, 1.12 cm^2), 3 weeks culture, apical to basal, Ringer-buffer pH 7.4, donor 100 µM liraglutide (PN159 3 µM where present), 1 h, HPLC-UV 214 nm, mean, n = 4; read-out: apparent permeability coefficient (Papp) of liraglutide
Method: as §1, §2
(§3) Caco-2 cells were seeded onto Transwell inserts (polycarbonate membrane, 3 µm pore size, 1.12 cm^2 surface area; Corning Life Sciences, Tewksbury, MA, USA) and cultured for three weeks. […] Treatment solutions from both compartments were collected and the Lira level was detected by HPLC.
(§4) The apparent permeability coefficients (Papp) were calculated as described previously. […]
(§5) Recovery (mass balance) was calculated according to the equation: %Recovery=CfDV^D+CfAV^A/C0DV^D×100% where C0D and CfD are the initial and final concentrations of the compound in the donor compartment, respectively; […] is the final concentration in the acceptor compartment; and V^D and V^A are the volumes of the solutions in the donor and acceptor compartments.
(§6) Lira was analyzed by a reversed phase HPLC (Agilent 1200, San Diego, CA, USA) method that was previously developed and validated in our lab. […]

[3] = system: Caco-2 epithelial cell layers; test: Permeability study on the Caco-2 model; type: in vitro ADME, human
Method: as §1, §2, §3, §4, §5, §6

[4] = system: pancreatin; test: Enzymatic degradation study in pancreatin-containing simulated intestinal fluid SIF; type: in vitro ADME, porcine; conditions: SIF with pancreatin (10 g/L, USP), pH 6.8, 37 °C, 100 rpm, 500 μg Lira in 2 mL, HPLC-UV, triplicate
Method: Stability analysis in the presence of pepsin and pancreatin was conducted and compared between native Lira and Lira loaded in PLGA NPs. Five hundred micrograms of native Lira, or the amount of NPs containing an equivalent amount of Lira, were added to 2 mL of pepsin-containing simulated gastric fluid SGF (3.2 g pepsin, 2 g of sodium chloride, 7 mL HCl, mixed and diluted with water to 1 L, pH = 1.2) or pancreatin-containing simulated intestinal fluid SIF (10 g pancreatin, 6.8 g KH2PO4, mixed and adjusted with 0.2 N NaOH then diluted with water to 1 L, pH = 6.8) and incubated at 37 °C under stirring at a speed of 100 rpm. The SGF and SIF were prepared as per USP specifications (Test Solutions, United States Pharmacopeia 35, NF 30, 2012). The same methodology was followed to assess the native Lira stability in SGFsp and SIFsp. […] The samples were centrifuged at 16,500× g and 4 °C for 10 min and the supernatant was analyzed by HPLC to calculate the residual Lira. […] Lira recovery in the withdrawn samples was calculated using the following equation: Lira recovery% = (Remaining Lira amount/theoretical Lira amount) × 100
as §6

[5] = system: Caco-2 epithelial cells; test: Immunostaining for junctional proteins ZO-1 and β-catenin; type: cell-based, human; conditions: Caco-2 on glass coverslips, 1 h treatment, Lira 100 µM, PN159 3 µM, confocal microscopy
Method: Aiming to investigate the morphological changes in interepithelial junctions, immunostaining for the junctional proteins, zonula occludens protein-1 (ZO-1) and β-catenin, was carried out. Cells were grown on glass coverslips (Menzel-Glaser, Braunschweig, Germany) at a density of 4 × 10^4 cells/coverslips for 4 days and treated with Lira (100 µM), Lira loaded in PLGA NPs, Lira and PN159 solution, and PN159 peptide (3 µM) solutions for 1 h. After the treatment, the coverslips were washed with phosphate buffer (PBS) and the cells were fixed with 3% paraformaldehyde solution for 15 min at room temperature and incubated in 0.2% TX-100 solution for permeabilization. The cells were blocked with 3% bovine serum albumin in PBS and incubated with the rabbit primary antibodies, anti-ZO-1 and anti-β-catenin, overnight. Incubation with secondary Cy3-labeled anti-rabbit antibody lasted for 1 h. Hoechst dye 33342 was used to stain the cell nuclei. After mounting the samples (Fluoromount-G; Southern Biotech, Birmingham, AL, USA), the staining was visualized by a Visitron spinning disk confocal system (Visitron Systems GmbH, Puchheim, Germany).

Molecule: Triton X-100
cell index values measured by impedance (cell viability) [1]: impedance dropped to zero

Papp A→B at 1 h, 100 µM [2]: 16 ×10⁻⁶ cm/s | Recovery (%) Mean ± SD (mass balance) ([3]; after liraglutide permeability on Caco-2 cells, donor 100 µM liraglutide, Ringer-buffer pH 7.4, 1 h, HPLC, mean ± SD): 80.9 ± 1.6% | Lira recovery ([4]; 30 min incubation, mean ± SD): 9.2 ± 0.7% | Lira degradation ([4]; 1 h incubation): completely degraded
Molecule: CCCCCCCCCCCCCCCC(=O)N[C@@H](CCC(=O)NCCCC[C@H](NC(=O)[C@H](C)NC(=O)[C@H](C)NC(=O)[C@H](CCC(N)=O)NC(=O)CNC(=O)[C@H](CCC(=O)O)NC(=O)[C@H](CC(C)C)NC(=O)[C@H](Cc1ccc(O)cc1)NC(=O)[C@H](CO)NC(=O)[C@H](CO)NC(=O)[C@@H](NC(=O)[C@H](CC(=O)O)NC(=O)[C@H](CO)NC(=O)[C@@H](NC(=O)[C@H](Cc1ccccc1)NC(=O)[C@@H](NC(=O)CNC(=O)[C@H](CCC(=O)O)NC(=O)[C@H](C)NC(=O)[C@@H](N)Cc1cnc[nH]1)[C@@H](C)O)[C@@H](C)O)C(C)C)C(=O)N[C@@H](CCC(=O)O)C(=O)N[C@@H](Cc1ccccc1)C(=O)N[C@H](C(=O)N[C@@H](C)C(=O)N[C@@H](Cc1c[nH]c2ccccc12)C(=O)N[C@@H](CC(C)C)C(=O)N[C@H](C(=O)N[C@@H](CCCNC(=N)N)C(=O)NCC(=O)N[C@@H](CCCNC(=N)N)C(=O)NCC(=O)O)C(C)C)[C@@H](C)CC)C(=O)O [Liraglutide]
cell impedance kinetics [1]: no decrease in cell impedance kinetics | cell index values measured by impedance (cell viability) [1]: did not change the cell index values

Papp of marker molecule ([3]; Caco-2 monolayers, TEER 893 ± 135 Ω × cm^2 before the experiments): below 0.5 × 10^−6 cm/s
Molecule: O=C1OC2(c3ccc(O)cc3Oc3cc(O)ccc32)c2ccccc21 [fluorescein]

Molecule: CC(C)C[C@H](NC(=O)[C@H](C)NC(=O)[C@H](CCCCN)NC(=O)[C@H](CC(C)C)NC(=O)[C@H](C)NC(=O)[C@H](CC(C)C)NC(=O)[C@H](CCCCN)NC(=O)[C@H](CC(C)C)NC(=O)[C@H](C)NC(=O)[C@H](CC(C)C)NC(=O)[C@@H](N)CCCCN)C(=O)N[C@@H](CCCCN)C(=O)N[C@@H](C)C(=O)N[C@@H](C)C(=O)N[C@@H](CC(C)C)C(=O)N[C@@H](CCCCN)C(=O)N[C@@H](CC(C)C)C(=O)N[C@@H](C)C(N)=O [PN159 peptide]
cell impedance kinetics [1]: no decrease in cell impedance kinetics | cell index values measured by impedance (cell viability) [1]: did not change the cell index values | junctional morphology (ZO-1 and β-catenin immunostaining) [5]: visible change in the staining pattern of β-catenin
